{"source": "patent US7485623B2", "about": "(priority 2002, dated 2009)", "key": {"[1]": {"experiment": "Example 1: radioactivity in blood and urine after percutaneous [3H]-labeled drug", "settings": "for share of radioactivity in blood: 24 hours after percutaneous [3H]-4-hydroxy tamoxifen", "method": "(§1) The patients received [^3H]-labeled drug applied directly on the affected breasts at specified intervals ranging from 12 hours to 7 days before surgery to excise diseased tissue. Breast tissue from three regions: the tumor, tissue immediately surrounding the tumor, and normal tissue, was excised and immediately frozen in liquid nitrogen. Additionally, plasma and urine samples were obtained at scheduled intervals and frozen until analysis."}, "[2]": {"experiment": "Example 1: radioactivity and metabolites in breast tissue after percutaneous [3H]-labeled drug", "method": "as §1"}, "[3]": {"experiment": "Example 3: plasma pharmacokinetics of 4-hydroxy tamoxifen gel in healthy premenopausal women", "settings": "for AUC0-24, Mean ± SD / Cav = AUC0-24/24, Mean ± SD / tmax, Mean ± SD / Cmax, Mean ± SD / t1/2 (range): last administration; for Cmax, Mean ± SD: day 25 of second cycle", "experimental": "Each participant applied the gel daily for the duration of two menstrual cycles.\nAt the end of a menstrual cycle, each patient received a single dose, after which serial blood samples were collected at 0, 0.5, 1, 1.5, 2, 3, 4, 6, 12, 18, 24, 36, 48, and 72 hours.\nOn the first day of the following menstruation, treatment, which consisted of daily application of the gel over two menstrual cycles, began. Blood samples were collected 24 hours following the morning application of gel on days 7, 20 and 25 of the first and second cycles. On the last day of administration, day 25 of the second menstrual cycle, serial blood samples were collected prior to application and at 0.5, 1, 1.5, 2, 3, 4, 6, 12, 18, 24, 36, 48, and 72 hours after application of the gel."}, "[4]": {"settings": "topical application"}, "estrone sulphatase": {"biological_target": "T1, estrone sulphatase (Homo sapiens, UniProt P08842)", "T1 construct": "estrone sulphatase activity in mammary cancer cell lines", "T1 sequence (P08842 22-583)": "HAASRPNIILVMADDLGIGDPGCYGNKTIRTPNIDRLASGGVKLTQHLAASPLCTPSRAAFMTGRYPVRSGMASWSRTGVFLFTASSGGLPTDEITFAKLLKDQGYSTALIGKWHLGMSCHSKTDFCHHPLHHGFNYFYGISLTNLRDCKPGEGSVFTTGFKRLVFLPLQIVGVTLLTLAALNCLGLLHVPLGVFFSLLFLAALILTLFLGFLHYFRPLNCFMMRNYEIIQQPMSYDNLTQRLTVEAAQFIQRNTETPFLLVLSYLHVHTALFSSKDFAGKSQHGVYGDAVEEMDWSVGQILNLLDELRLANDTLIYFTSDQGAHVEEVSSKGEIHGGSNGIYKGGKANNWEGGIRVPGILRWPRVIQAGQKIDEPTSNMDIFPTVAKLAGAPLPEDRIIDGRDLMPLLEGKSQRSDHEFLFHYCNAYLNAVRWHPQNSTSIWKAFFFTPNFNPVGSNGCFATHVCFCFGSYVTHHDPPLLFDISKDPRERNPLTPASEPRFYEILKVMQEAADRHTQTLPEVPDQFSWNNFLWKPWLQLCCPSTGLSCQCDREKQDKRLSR", "settings": "mammary cancer cell lines; cited from earlier work"}, "estrogen receptors": {"tested_on": "estrogen receptors", "settings": "in vitro; cited from earlier work"}, "[5]": {"tested_on": "p53(−) normal human mammary epithelial cells", "settings": "cited from earlier work"}, "breast density": {"tested_on": "breast density", "settings": "cited from earlier work"}, "[6]": {"settings": "oral tamoxifen; cited from earlier work"}, "[7]": {"settings": "Group 2 (0.5 mg/day gel), seventh day; Group 1 (oral tamoxifen), fifth day; cited from earlier work"}, "rat liver": {"tested_on": "rat liver", "settings": "cited from earlier work"}, "[8]": {"settings": "12 hr after percutaneous trans-[3H]-4-hydroxy tamoxifen"}, "[9]": {"settings": "24 hr after percutaneous trans-[3H]-4-hydroxy tamoxifen"}, "[10]": {"settings": "36 hr after percutaneous trans-[3H]-4-hydroxy tamoxifen"}, "[11]": {"settings": "Day 4 after percutaneous trans-[3H]-4-hydroxy tamoxifen"}, "[12]": {"settings": "Day 7 after percutaneous trans-[3H]-4-hydroxy tamoxifen"}, "[13]": {"settings": "0.5 mg/day (n = 12), gel 20 mg/100 g"}, "[14]": {"settings": "1 mg/day (n = 8), gel 20 mg/100 g"}, "[15]": {"settings": "1 mg/day (n = 12), gel 57 mg/100 g"}, "[16]": {"settings": "2 mg/day (n = 12), gel 57 mg/100 g"}}, "data": [{"molecule": "CC(C)(c1ccc(O)cc1)c1ccc(O)cc1", "note": "[Bisphenol]", "values": [{"measurement": "share of radioactivity in blood", "setting": "[1]", "value": 11, "unit": "%"}, {"measurement": "% Metabolites in Breast Tissue", "setting": "[2]; [8]", "value": 1, "unit": "%"}, {"measurement": "% Metabolites in Breast Tissue", "setting": "[2]; [9]", "value": 2, "unit": "%"}, {"measurement": "% Metabolites in Breast Tissue", "setting": "[2]; [10]", "value": 3, "unit": "%"}, {"measurement": "% Metabolites in Breast Tissue", "setting": "[2]; [11]", "value": 8, "unit": "%"}, {"measurement": "% Metabolites in Breast Tissue", "setting": "[2]; [12]", "value": 8, "unit": "%"}]}, {"molecule": "CC/C(=C(\\c1ccc(O)cc1)c1ccc(OCCN(C)C)cc1)c1ccccc1", "note": "[4-hydroxy tamoxifen, 1-[4-(2-N-dimethylaminoethoxy)phenyl]-1-(4-hydroxyphenyl)-2-phenylbut-1-(Z)-ene]", "values": [{"measurement": "AUC0-24, Mean ± SD", "setting": "[3]; [13]", "value": 256.3, "unit": "pg·h/mL"}, {"measurement": "Cav = AUC0-24/24, Mean ± SD", "setting": "[3]; [13]", "value": "10.7 ± 8.5", "unit": "pg/mL"}, {"measurement": "tmax, Mean ± SD", "setting": "[3]; [13]", "value": "40 ± 81", "unit": "h"}, {"measurement": "Cmax, Mean ± SD", "setting": "[3]; [13]", "value": "17.0 ± 8.5", "unit": "pg/mL"}, {"measurement": "AUC0-24, Mean ± SD", "setting": "[3]; [14]", "value": 300.9, "unit": "pg·h/mL"}, {"measurement": "Cav = AUC0-24/24, Mean ± SD", "setting": "[3]; [14]", "value": "12.5 ± 7.9", "unit": "pg/mL"}, {"measurement": "tmax, Mean ± SD", "setting": "[3]; [14]", "value": "24 ± 18", "unit": "h"}, {"measurement": "Cmax, Mean ± SD", "setting": "[3]; [14]", "value": "21.0 ± 14.0", "unit": "pg/mL"}, {"measurement": "AUC0-24, Mean ± SD", "setting": "[3]; [15]", "value": "619 ± 466", "unit": "pg·h/mL"}, {"measurement": "Cav = AUC0-24/24, Mean ± SD", "setting": "[3]; [15]", "value": "25.8 ± 19.4", "unit": "pg/mL"}, {"measurement": "t1/2 (range)", "setting": "[3]; [15]", "value": "(58-118) hr"}, {"measurement": "tmax, Mean ± SD", "setting": "[3]; [15]", "value": "12.8 ± 14.9", "unit": "h"}, {"measurement": "Cmax, Mean ± SD", "setting": "[3]; [15]", "value": "35.1 ± 22.4", "unit": "pg/mL"}, {"measurement": "AUC0-24, Mean ± SD", "setting": "[3]; [16]", "value": "998 ± 653", "unit": "pg·h/mL"}, {"measurement": "Cav = AUC0-24/24, Mean ± SD", "setting": "[3]; [16]", "value": "41.6 ± 27.2", "unit": "pg/mL"}, {"measurement": "t1/2 (range)", "setting": "[3]; [16]", "value": "(49-101) hr"}, {"measurement": "tmax, Mean ± SD", "setting": "[3]; [16]", "value": "11.8 ± 12.3", "unit": "h"}, {"measurement": "Cmax, Mean ± SD", "setting": "[3]; [16]", "value": "51.6 ± 31.7", "unit": "pg/mL"}, {"measurement": "detectability in plasma after the last gel application", "setting": "[3]; in vivo", "value": "remained detectable 72 hours after the last gel application"}, {"measurement": "exposure versus dose", "setting": "[3]; topical application, 0.5, 1, and 2 mg", "value": "increases with dose"}, {"measurement": "systemic effects", "setting": "[4]", "value": "no detectable laboratory or clinical evidence of systemic effects"}, {"measurement": "effect on estrone sulphatase activity", "setting": "estrone sulphatase", "value": "significant inhibitory effect"}, {"measurement": "binding affinity for estrogen receptors, compared with estradiol", "setting": "estrogen receptors", "value": "a binding affinity similar to estradiol"}, {"measurement": "potency as binding affinity to estrogen receptors, compared with tamoxifen", "setting": "estrogen receptors", "value": "more potency than tamoxifen"}, {"measurement": "share of radioactivity in blood", "setting": "[1]", "value": 68, "unit": "%"}, {"measurement": "urinary elimination compared to percutaneous tamoxifen", "setting": "[1]; percutaneous administration", "value": "Peak urinary elimination occurred at a later time"}, {"measurement": "% Metabolites in Breast Tissue", "setting": "[2]; [8]", "value": 97, "unit": "%"}, {"measurement": "% Metabolites in Breast Tissue", "setting": "[2]; [9]", "value": 94, "unit": "%"}, {"measurement": "% Metabolites in Breast Tissue", "setting": "[2]; [10]", "value": 78, "unit": "%"}, {"measurement": "% Metabolites in Breast Tissue", "setting": "[2]; [11]", "value": 70, "unit": "%"}, {"measurement": "% Metabolites in Breast Tissue", "setting": "[2]; [12]", "value": 65, "unit": "%"}, {"measurement": "metabolism in intracellular sites of breast tissue", "setting": "[2]; cytosolic and nuclear fractions", "value": "remained unmetabolized except for limited isomerization from the trans to the cis form"}, {"measurement": "subcellular distribution in breast tissue", "setting": "[2]; percutaneous application", "value": "concentrated predominantly in the cytosolic and nuclear fractions of breast tissue"}, {"measurement": "retention in the breast", "setting": "[2]; percutaneous application of [3H]-labeled drug", "value": "approximately 4 days"}]}, {"molecule": "CCC(=C(c1ccc(O)cc1)c1ccc(OCCNC)cc1)c1ccccc1", "note": "[N-Desmethyl-4-Hydroxy Tamoxifen]", "values": [{"measurement": "share of radioactivity in blood", "setting": "[1]", "value": 18, "unit": "%"}, {"measurement": "% Metabolites in Breast Tissue", "setting": "[2]; [8]", "value": 2, "unit": "%"}, {"measurement": "% Metabolites in Breast Tissue", "setting": "[2]; [9]", "value": 4, "unit": "%"}, {"measurement": "% Metabolites in Breast Tissue", "setting": "[2]; [10]", "value": 14, "unit": "%"}, {"measurement": "% Metabolites in Breast Tissue", "setting": "[2]; [11]", "value": 20, "unit": "%"}, {"measurement": "% Metabolites in Breast Tissue", "setting": "[2]; [12]", "value": 16, "unit": "%"}]}, {"molecule": "CC/C(=C(\\c1ccccc1)c1ccc(OCCNC)cc1)c1ccccc1", "note": "[N-Desmethyl tamoxifen]", "values": [{"measurement": "% Metabolites in Breast Tissue", "setting": "[2]; [10]", "value": "<1", "unit": "%"}, {"measurement": "% Metabolites in Breast Tissue", "setting": "[2]; [11]", "value": "<1", "unit": "%"}, {"measurement": "% Metabolites in Breast Tissue", "setting": "[2]; [12]", "value": "3-4%"}]}, {"molecule": "CC/C(=C(\\c1ccc(O)cc1)c1ccc(OCCN(C)C)cc1)c1ccccc1", "note": "[Trans 4-hydroxy tamoxifen]", "values": [{"measurement": "percentage of radioactivity in breast tissue as isomer of 4-hydroxy tamoxifen", "setting": "[2]; day 7", "value": 32, "unit": "%"}]}, {"molecule": "CC/C(=C(\\c1ccccc1)c1ccc(OCCN(C)C)cc1)c1ccccc1", "note": "[tamoxifen]", "values": [{"measurement": "initiation of apoptosis", "setting": "[5]", "value": "initiates apoptosis"}, {"measurement": "effect on estrone sulphatase activity", "setting": "estrone sulphatase", "value": "little or no effect"}, {"measurement": "women with decreased breast parenchyma", "setting": "breast density; 20 mg/day after surgery for breast cancer (Son et al.)", "value": 59.8, "unit": "%"}, {"measurement": "change of mammographic pattern", "setting": "breast density; contralateral breasts of postmenopausal breast cancer patients, 20 mg/day", "value": "significant change toward a less dense mammographic pattern"}, {"measurement": "decrease of breast parenchyma in premenopausal women", "setting": "breast density; premenopausal women, 20 mg/day (Son et al.)", "value": 87, "unit": "%"}, {"measurement": "side effects reported by patients", "setting": "[6]", "value": "hot flashes, vaginal discharge, depression, amenorrhea, and nausea"}, {"measurement": "side effects reported by one person", "setting": "[7]", "value": "hot flashes and mild vaginitis"}, {"measurement": "rat liver carcinogenicity", "setting": "rat liver", "value": "potent rat liver carcinogen"}]}, {"molecule": "CC/C(=C(\\c1ccccc1)c1ccc(OCCN(C)C)cc1)c1ccccc1", "note": "[[^3H]-tamoxifen, reference compound]", "values": [{"measurement": "time of plateau of radioactivity in blood", "setting": "[1]; percutaneous application", "value": 2, "unit": "days"}]}]}
